Laboratory results: patent US20090069441A1, “Motuporamine Mimic Agents” (priority 2006, published 2009)
Like-named read-outs stand apart in the source and are kept apart here.

Key:
[1] = tested on: L1210 cells; test: Cytotoxicity (cell growth, MTT) in L1210 cells; format: cell-based, mouse; settings: Mus musculus, read-out: L1210 IC50
Source text: (§1) In terms of Table 1, L1210 cells are mouse leukemia cells and are the gold standard in terms of evaluating polyamine cytotoxicity data due to a plethora of prior data in this cell line for other polyamine structures. Clearly 7a was similar in all respects to 4a (Table 1). […] The lower the Ki value, the higher the affinity of the drug for the polyamine transporter (PAT) on the cell surface. Chinese hamster ovary (CHO) cells and a mutant line without an active PAT (CHO-MG) also evaluated the PAT selectivity of these drugs.
Biological Evaluation. Once synthesized, the conjugates were screened for cytotoxicity in L1210, CHO and CHO-MG cells. L1210 (mouse leukemia) cells were selected to enable comparisons with the published IC50 and Ki values for a variety of polyamine substrates. Chinese Hamster Ovary (CHO) cells were chosen along with a mutant PAT deficient cell line (CHO-MG) in order to comment on selective transport via the PAT (Wang et al, J. Med. Chem. 2003, 46, 2663-2671; Wang et al, J. Med. Chem. 2003, 46, 2672-2682; Wang et al., J. Med. Chem. 2003, 46, 5129-5138; Delcros et al., J. Med. Chem., 2002, 45, 5098-5111).
(§2) L1210 IC50 and Ki studies. […] The Ki values in Table 3 were determined for [^14C]spermidine uptake and reflect the affinity of the polyamine derivative for the polyamine transporter on the cell surface. With both parameters, one can determine whether high affinity for the transporter (e.g., low Ki value) translated into high cytotoxicity (e.g., low IC50 value), etc.
(§3) Biological studies. Murine leukemia cells (L1210), CHO and CHO-MG cells were grown in RPMI medium supplemented with 10% fetal calf serum, glutamine (2 mM), penicillin (100 U/mL), streptomycin (50 μg/mL). L-Proline (2 μg/mL) was added to the culture medium for CHO-MG cells. Cells were grown at 37° C. under a humidified 5% CO2 atmosphere. Aminoguanidine (AG, 2 mM) was added to the culture medium to prevent oxidation of the drugs by the enzyme (bovine serum amine oxidase) present in calf serum. Trypan blue staining was used to determine cell viability before the initiation of a cytotoxicity experiment. Cells in early to mid log-phase were used. IC50 determinations. Cell growth was assayed in sterile 96-well microtiter plates (Becton-Dickinson, Oxnard, Calif., USA). L1210 cells were seeded at 5e^4 cells/mL of medium (100 μL/well). CHO and CHO-MG cells were plated at 2e^3 cells/mL. Drug solutions (10 μL per well) of appropriate concentration were added at the time of seeding for L1210 cells and after an overnight incubation for the CHO cell lines. After exposure to the drug for 48 hr, cell growth was determined by measuring formazan formation from 3-(4,5-dimethylthiazol-2-yl)2,5-diphenyltetrazolium using a Titertek Multiskan MCC/340 microplate reader for absorbance (540 nm) measurements (Mosmann, T., J. Immunol. Methods 1983, 65, 55-63).

[2] = tested on: CHO cells; test: Cytotoxicity in CHO cells; format: cell-based, Chinese hamster; settings: for IC50: Cricetulus griseus, CHO
Source text: as §1
CHO and CHO-MG studies. Chinese hamster ovary (CHO) cells were chosen along with a mutant cell line (CHO-MG) in order to comment on how the synthetic conjugates gain access to cells. The CHO-MG cell line is polyamine-transport deficient and was isolated after selection for growth resistance to methylglyoxalbis(guanylhydrazone), MGBG, (CH3C[═N—NHC(═NH)NH2]CH[═N—NHC(═NH)NH2]) using a single-step selection after mutagenesis with ethylmethanesulfonate (Mandel et al., J. Cell. Physiol., 1978, 97, 335-344; Byers et al., Biochem. J. 1989, 263, 745-752).
In contrast, the parent CHO cell line represents a cell type with high PAT activity. Comparison of conjugate cytotoxicity in these two CHO lines provided an important screen to detect selective conjugate delivery via the PAT. For example, a conjugate with high utilization of the polyamine transporter would be very toxic to CHO cells, but less so to CHO-MG cells. In short, highly-selective PAT ligands should give high (CHO-MG/CHO) IC50 ratios.
as §3, with “Aminoguanidine (AG, 2 mM) was added to the culture medium to prevent oxidation of the drugs by the enzyme (bovine serum amine oxidase) present in calf serum.” left out

[3] = tested on: polyamine transporter (PAT); test: Ki for inhibition of [14C]spermidine uptake in L1210 cells; format: cell-based, mouse
Source text: as §1, §2
Ki procedure. The ability of the conjugates to interact with the polyamine transport system was determined by measuring competition by the conjugates against radiolabeled spermidine uptake in L1210 cells. Initially, the Km value of spermidine transport was determined as previously described (Clément et al., Biochem. J. 1995, 312, 933-938). The ability of conjugates to compete for [^14C]spermidine uptake were determined in L1210 cells by a 10-min uptake assay in the presence of increasing concentrations of competitor, using 1 μM [^14C]spermidine as substrate. Ki values for inhibition of spermidine uptake were determined using the Cheng-Prusoff equation (Cheng and Prusoff, Biochem. Pharmacol. 1973, 22, 3099-3108) from the IC50 value derived by iterative curve fitting of the sigmoidal equation describing the velocity of spermidine uptake in the presence of the respective competitor (Torossian et al., Biochem. J., 1996, 319, 21-26). L1210 cells were grown and maintained according to established procedures (Bergeron et al., J. Med. Chem. 2000, 43, 224-235) and were washed twice in HBSS prior to the transport assay.

For `NCCCCNCCCCNCc1c2ccccc2cc2ccccc12` [Compound 6b], the IC50 ([1]; L1210, in the presence of AG, 48 h at 37° C.) was 0.3 µM, the IC50 ([1]; L1210 experiments, no added SPD) was 0.3 µM and the IC50 ([2]; absence of AG, 48 h, read-out: CHO IC50 w/o AG) was 1.74 µM. The IC50 ([2]; in the presence of AG, 48 h at 37° C., read-out: CHO IC50) was 0.45 µM, the “CHOMG/CHO IC50 ratio in the absence of AG” value ([2]; absence of AG) was 4 and the “IC50 Ratio (CHO-MG/CHO) w/o AG” value ([2]; absence of AG) was 4. The “IC50 Ratio (CHO-MG/CHO), a measure of PAT selectivity” value ([2]; in the presence of AG) was 148, the “CHOMG/CHO IC50 ratio” value ([2]; with AG) was 148 and the “IC50 Ratio (CHO-MG/CHO) with AG” value ([2]; with AG) was 148. For the same compound, the Ki ([3]; [14C]spermidine uptake, 10-min, 1 μM substrate, read-out: L1210 Ki values) was 1.8 µM.

In the case of `CCN(CCCNCCCN)Cc1c2ccccc2cc2ccccc12` [Compound 7a, N-(3-Amino-propyl)-N′-anthracen-9-ylmethyl-N′-ethyl-propane-1,3-diamine], the IC50 ([1]; L1210, 48 h incubation, new data) is reported as 2.2 µM, the IC50 ([2]; 48 h incubation, new data, read-out: CHO IC50) is reported as 5.3 µM and the “IC50 Ratio (CHO-MG/CHO), a measure of PAT selectivity” value ([2]; new data) is reported as 0.8. It also gave a Ki ([3]; new data, read-out: L1210 Ki value) of 23.5 µM.
